Data from article PMC9630929 (Journal of medicinal chemistry, 2022).

Assays:
[1] = tested on: PBRM1-BD5; conditions: cited from earlier work
[2] = tested on: SMARCA2 bromodomain; conditions: cited from earlier work
[3] = tested on: SMARCA2 bromodomain; conditions: DSF; cited from earlier work
[4] = tested on: PC3 cells; conditions: 0.1, 1, 10 μM; compound 7 up to 100 μM
[5] = molecular target: SMARCA2B bromodomain (Homo sapiens, UniProt P51531); assay type: binding; conditions: DSF, 100 μM inhibitor, 10 μM bromodomain
Sequence of SMARCA2B bromodomain (Homo sapiens, UniProt P51531) (P51531 1373-1493 isoform P51531-2 limits assumed): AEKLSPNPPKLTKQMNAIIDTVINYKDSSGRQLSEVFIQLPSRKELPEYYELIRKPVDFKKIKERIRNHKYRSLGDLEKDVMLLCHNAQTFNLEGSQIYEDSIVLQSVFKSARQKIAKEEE

[6] = tested on: other tested bromodomains; conditions: DSF, 100 μM inhibitor, 10 μM bromodomain
[7] = tested on: LNCaP cells expressing shRNA against PBRM1 or vector control; assay type: cell-based, human; conditions: 10 μM, 5 days
[8] = Solubility observed in the AlphaScreen assay; assay type: physicochemical; conditions: at tested concentrations
[9] = tested on: SMARCA2B bromodomain; conditions: cited from earlier work

For `CN(C)/C=C1\CCn2c1nc(=O)c1c(Cl)cccc12` [Compound 2, (E)-6-Chloro-3-((dimethylamino)methylene)-2,3-dihydropyrrolo[1,2-a]quinazolin-5(1H)-one], the “binding toward PBRM1-BD5” value [1] is listed as “nanomolar binding” and the “binding toward SMARCA2 bromodomain” value [2] is listed as “nanomolar binding”.
In the case of `CCC(/C=C1\CCn2c1nc(=O)c1c(Cl)cccc12)CC` [Compound 7, (E)-6-Chloro-3-(2-ethylbutylidene)-2,3-dihydropyrrolo[1,2-a]quinazolin-5(1H)-one], the “ΔTm SMARCA2 bromodomain” value [3] is given as over 2.5 °C and the “growth inhibition of PC3 cells” value [4] is given as “more substantial inhibition”.
For `Cc1ccccc1C1NC(=O)c2c(Cl)cccc2N1` (centres unmarked) [Compound 15, 5-Chloro-2-(2-methylphenyl)-2,3-dihydroquinazolin-4(1H)-one], the “SMARCA2B ΔTm” value [5] was “did not exhibit detectable thermal stabilization” and the “thermal stabilization of the other tested bromodomains (ΔTm)” value [6] was under 1 °C.
In the case of `Cc1cccc(C2NC(=O)c3c(Cl)cccc3N2)c1` (centres unmarked) [Compound 16, 5-Chloro-2-(3-methylphenyl)-2,3-dihydroquinazolin-4(1H)-one], the “growth inhibition of PC3 cells” value [4] is reported as “do not inhibit the growth”, the “effect on LNCaP viability with native PBRM1 vs PBRM1 knockdown” value [7] is reported as “more significant effect on LNCaP viability in cells with native PBRM1 levels than in cells with PBRM1 knockdown” and the “SMARCA2B ΔTm” value [5] is reported as “did not exhibit detectable thermal stabilization”.
With `Cc1cc(C)c(C2NC(=O)c3c(Cl)cccc3N2)c(C)c1` (centres unmarked) [Compound 22, 5-Chloro-2-(2,4,6-trimethylphenyl)-2,3-dihydroquinazolin-4(1H)-one] the “solubility in the AlphaScreen assay” value [8] was “solubility issues”.
For `Cc1cccc(C2NC(=O)c3c(Br)cccc3N2)c1` (centres unmarked) [Compound 34, 5-Bromo-2-(3-methylphenyl)-2,3-dihydroquinazolin-4(1H)-one], the “growth inhibition of PC3 cells” value [4] was “do not inhibit the growth”.
For `CCC(CC)C1CC12CCn1c2nc(=O)c2c(Cl)cccc21` (centres unmarked) [LM146], the “binding toward SMARCA2B bromodomain” value [9] is given as “low micromolar affinity”.
In the case of `O=C(/C=C/N1C[C@H]2C[C@@H]1CN2c1ccccn1)c1ccccc1O` [PFI-3], the “binding toward PBRM1-BD5” value [1] is listed as “nanomolar binding” and the “binding toward SMARCA2 bromodomain” value [2] is listed as “nanomolar binding”.
